Laboratory results: ChEMBL document CHEMBL1201862, “PubChem BioAssay data set” (2004)
Calls of active or inactive are those of the source.

How the values were obtained:
[1] = target: T1, DNA repair and recombination protein RAD54-like (Homo sapiens, UniProt Q92698); assay: RAD54 Holliday junction migration blockers – biochemical, fluorescence, cherry-picked samples, dose series, confirmation (AID 651657); type: functional
T1 sequence (Q92698 whole entry): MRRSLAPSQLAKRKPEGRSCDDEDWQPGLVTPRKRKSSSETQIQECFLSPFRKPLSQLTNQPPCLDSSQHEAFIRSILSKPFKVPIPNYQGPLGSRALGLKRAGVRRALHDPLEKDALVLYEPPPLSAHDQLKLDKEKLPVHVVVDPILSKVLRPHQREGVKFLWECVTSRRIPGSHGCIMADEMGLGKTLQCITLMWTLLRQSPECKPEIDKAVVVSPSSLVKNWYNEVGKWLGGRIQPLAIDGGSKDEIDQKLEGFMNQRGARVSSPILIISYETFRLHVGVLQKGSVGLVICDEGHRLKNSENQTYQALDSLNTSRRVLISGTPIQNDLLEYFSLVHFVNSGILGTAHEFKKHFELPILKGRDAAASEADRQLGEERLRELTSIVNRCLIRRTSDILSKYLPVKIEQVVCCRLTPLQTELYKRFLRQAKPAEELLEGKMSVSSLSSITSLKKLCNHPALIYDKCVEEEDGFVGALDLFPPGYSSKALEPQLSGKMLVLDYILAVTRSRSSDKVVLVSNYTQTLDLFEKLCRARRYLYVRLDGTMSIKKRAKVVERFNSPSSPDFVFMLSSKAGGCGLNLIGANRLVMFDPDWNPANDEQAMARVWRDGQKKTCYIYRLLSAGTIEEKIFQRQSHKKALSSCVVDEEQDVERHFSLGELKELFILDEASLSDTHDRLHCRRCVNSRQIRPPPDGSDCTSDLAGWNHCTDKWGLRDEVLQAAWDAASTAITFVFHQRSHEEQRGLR

[2] = bead-based luminescence quenchers, dual-tagged ARNT – biochemical, AlphaScreen, cherry-pick, artefact control for ARNT-TACC3 interaction inhibitor project, dose response (AID 651705); type: functional;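 also: AlphaScreen bead proximity signal that flags compounds interfering with the detection technology; potency reflects signal decrease which marks the compound as an assay artifact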
Cytochrome P450 1A2 = target: T2, Cytochrome P450 1A2 (Homo sapiens, UniProt P05177);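 also: PubChem cytochrome P450 panel assay, CYP1A2 panel member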
T2 sequence (P05177 whole entry): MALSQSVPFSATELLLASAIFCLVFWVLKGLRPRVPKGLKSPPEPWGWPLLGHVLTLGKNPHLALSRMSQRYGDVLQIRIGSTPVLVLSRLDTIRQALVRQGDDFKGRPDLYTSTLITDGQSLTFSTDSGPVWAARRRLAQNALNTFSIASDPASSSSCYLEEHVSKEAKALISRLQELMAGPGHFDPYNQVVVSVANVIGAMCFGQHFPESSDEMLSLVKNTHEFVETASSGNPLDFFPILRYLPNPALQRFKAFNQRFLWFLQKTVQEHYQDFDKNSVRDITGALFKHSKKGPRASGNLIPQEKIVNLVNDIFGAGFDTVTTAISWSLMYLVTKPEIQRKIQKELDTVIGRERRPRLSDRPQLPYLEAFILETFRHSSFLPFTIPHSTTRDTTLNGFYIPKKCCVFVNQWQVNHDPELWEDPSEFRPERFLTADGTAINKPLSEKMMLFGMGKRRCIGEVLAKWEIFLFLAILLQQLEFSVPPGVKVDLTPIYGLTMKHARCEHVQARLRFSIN

Cytochrome P450 2C9 = Cytochrome P450 2C9 (Homo sapiens, UniProt P11712)
Sequence of Cytochrome P450 2C9 (P11712 whole entry): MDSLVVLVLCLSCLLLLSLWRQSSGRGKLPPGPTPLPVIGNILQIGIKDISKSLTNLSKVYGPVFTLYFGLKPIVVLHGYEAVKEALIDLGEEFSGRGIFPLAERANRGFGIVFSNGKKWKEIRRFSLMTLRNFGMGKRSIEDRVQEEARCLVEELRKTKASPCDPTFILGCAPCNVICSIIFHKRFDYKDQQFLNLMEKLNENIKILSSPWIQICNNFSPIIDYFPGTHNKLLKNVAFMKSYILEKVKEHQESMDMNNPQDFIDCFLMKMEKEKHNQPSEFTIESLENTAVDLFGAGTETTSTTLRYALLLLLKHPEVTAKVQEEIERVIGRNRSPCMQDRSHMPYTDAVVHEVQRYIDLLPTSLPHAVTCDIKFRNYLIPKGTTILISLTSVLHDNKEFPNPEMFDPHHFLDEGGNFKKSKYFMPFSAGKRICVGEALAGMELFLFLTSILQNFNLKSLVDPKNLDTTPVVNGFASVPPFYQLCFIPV

[3] = target: T3, DNA repair protein RAD52 homolog (Homo sapiens, UniProt P43351); type: functional, biochemical
T3 sequence (P43351 whole entry): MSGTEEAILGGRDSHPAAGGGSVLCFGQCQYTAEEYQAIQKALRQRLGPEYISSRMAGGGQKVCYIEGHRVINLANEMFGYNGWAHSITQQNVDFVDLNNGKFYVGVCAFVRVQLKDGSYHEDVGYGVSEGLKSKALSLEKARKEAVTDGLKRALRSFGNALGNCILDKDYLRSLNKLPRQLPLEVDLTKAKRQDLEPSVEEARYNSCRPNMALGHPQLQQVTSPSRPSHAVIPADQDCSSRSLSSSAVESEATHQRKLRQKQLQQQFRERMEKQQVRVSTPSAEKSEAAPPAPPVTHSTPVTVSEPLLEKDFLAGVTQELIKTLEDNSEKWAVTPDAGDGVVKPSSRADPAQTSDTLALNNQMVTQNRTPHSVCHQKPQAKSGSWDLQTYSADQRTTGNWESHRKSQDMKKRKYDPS

Coagulation factor XII = target: T4, Coagulation factor XII (Homo sapiens, UniProt P00748); type: functional;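 also: activated factor XIIa alpha cleaving a fluorogenic AMC peptide substrate; inhibitor potency from loss of enzyme activity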
T4 sequence (P00748 whole entry): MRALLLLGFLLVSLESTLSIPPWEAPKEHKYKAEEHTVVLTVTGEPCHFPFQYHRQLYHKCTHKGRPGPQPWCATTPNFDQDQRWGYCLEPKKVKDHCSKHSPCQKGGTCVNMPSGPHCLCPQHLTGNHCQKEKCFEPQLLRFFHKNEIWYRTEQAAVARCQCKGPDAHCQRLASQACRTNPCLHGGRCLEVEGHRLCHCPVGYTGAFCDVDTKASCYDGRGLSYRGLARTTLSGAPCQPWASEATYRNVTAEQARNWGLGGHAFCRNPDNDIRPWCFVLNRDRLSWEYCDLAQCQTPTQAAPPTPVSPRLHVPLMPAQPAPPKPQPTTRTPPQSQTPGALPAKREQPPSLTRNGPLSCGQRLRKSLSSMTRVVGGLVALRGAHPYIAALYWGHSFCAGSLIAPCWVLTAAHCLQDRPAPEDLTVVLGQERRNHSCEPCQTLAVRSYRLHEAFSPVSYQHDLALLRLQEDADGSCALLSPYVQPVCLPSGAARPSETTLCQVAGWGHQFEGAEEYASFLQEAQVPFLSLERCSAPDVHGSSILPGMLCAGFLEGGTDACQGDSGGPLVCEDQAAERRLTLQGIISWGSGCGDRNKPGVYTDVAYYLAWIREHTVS

[4] = target: DNA (cytosine-5)-methyltransferase 1 (Homo sapiens, UniProt P26358); assay: inhibition of DNA methylation by DNMT1 – biochemical, fluorescent molecular beacon, confirmation (AID 602386); type: functional
Sequence of DNA (cytosine-5)-methyltransferase 1 (P26358 whole entry): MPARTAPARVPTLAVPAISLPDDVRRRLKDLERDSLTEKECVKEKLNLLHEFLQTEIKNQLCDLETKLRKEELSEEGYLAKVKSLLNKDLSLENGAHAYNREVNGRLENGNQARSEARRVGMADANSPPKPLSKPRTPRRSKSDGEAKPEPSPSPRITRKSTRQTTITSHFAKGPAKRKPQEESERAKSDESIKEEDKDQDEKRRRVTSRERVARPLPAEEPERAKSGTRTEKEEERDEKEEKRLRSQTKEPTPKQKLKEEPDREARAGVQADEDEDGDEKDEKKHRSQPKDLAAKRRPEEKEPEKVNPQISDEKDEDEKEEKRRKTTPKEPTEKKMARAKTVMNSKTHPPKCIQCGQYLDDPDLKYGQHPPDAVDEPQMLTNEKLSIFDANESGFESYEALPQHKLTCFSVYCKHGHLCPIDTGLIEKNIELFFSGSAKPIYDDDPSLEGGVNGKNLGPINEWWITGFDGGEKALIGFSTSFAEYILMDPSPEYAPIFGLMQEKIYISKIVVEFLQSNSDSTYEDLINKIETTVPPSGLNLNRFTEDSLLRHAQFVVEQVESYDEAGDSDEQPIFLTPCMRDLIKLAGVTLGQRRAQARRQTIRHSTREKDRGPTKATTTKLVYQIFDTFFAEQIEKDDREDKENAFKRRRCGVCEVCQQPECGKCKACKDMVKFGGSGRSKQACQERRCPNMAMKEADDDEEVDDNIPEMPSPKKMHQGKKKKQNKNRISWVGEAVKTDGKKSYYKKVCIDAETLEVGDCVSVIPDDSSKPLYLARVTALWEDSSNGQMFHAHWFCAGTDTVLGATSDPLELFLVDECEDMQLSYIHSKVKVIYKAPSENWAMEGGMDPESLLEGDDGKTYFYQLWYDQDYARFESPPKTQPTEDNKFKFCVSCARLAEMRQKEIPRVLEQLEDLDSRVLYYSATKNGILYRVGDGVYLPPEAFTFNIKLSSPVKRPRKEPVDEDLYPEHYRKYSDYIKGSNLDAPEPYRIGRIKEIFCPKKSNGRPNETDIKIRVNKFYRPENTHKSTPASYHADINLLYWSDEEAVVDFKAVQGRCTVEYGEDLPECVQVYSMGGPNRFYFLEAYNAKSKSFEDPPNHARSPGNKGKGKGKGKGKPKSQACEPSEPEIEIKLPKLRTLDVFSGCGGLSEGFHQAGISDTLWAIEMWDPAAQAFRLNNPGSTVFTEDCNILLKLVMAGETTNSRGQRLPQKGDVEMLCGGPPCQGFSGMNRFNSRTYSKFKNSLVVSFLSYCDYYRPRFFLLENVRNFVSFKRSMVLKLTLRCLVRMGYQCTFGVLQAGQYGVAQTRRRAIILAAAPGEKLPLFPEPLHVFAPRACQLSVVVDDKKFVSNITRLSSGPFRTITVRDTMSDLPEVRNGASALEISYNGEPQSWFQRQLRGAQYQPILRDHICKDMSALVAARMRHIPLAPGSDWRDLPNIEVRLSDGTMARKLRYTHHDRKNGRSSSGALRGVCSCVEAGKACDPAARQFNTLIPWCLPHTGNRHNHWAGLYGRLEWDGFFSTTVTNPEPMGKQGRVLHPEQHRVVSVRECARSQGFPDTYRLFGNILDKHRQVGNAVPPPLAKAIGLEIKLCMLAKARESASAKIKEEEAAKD

Streptokinase A = target: T5, Streptokinase A (Streptococcus pyogenes serotype M1, UniProt P10520); assay: viability-normalized secreted streptokinase activity reduction – plasminogen activation absorbance, OD405, dose response (AID 1914); type: functional, Streptococcus pyogenes M1 GAS;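 also: secreted streptokinase activity via plasminogen activation per viability signal from cell pellet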
T5 sequence (P10520 whole entry): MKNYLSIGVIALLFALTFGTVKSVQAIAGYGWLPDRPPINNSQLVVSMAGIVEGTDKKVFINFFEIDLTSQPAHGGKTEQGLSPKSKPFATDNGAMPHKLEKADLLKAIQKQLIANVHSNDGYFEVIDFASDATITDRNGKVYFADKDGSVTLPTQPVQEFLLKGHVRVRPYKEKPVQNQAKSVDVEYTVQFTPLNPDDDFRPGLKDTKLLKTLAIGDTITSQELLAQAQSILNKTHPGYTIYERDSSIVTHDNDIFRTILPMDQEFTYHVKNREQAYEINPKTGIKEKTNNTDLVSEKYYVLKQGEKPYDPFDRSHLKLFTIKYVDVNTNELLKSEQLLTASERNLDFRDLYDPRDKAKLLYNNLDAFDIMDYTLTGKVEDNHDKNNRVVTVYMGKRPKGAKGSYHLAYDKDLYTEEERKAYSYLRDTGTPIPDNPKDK

[5] = Trypanosoma cruzi growth suppression in host cells – NIH3T3 host cells, beta-gal luminescence, confirmation (AID 2044); type: functional, cell-based;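 also: intracellular parasites grown in NIH/3T3 mouse fibroblasts as host cells; luminescent beta-galactosidase reporter signal from transgenic T. cruzi replicating inside host cells; inhibitors lower the luminescence signal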
Streptococcus = assay: GAS UMAA2166 growth inhibition – luminescence, BacTiterGlo, counter-screen for streptokinase expression inhibitor project, dose response (AID 1915); type: functional, organism-based;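 also: potency for reduction of bacterial viability or growth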
[6] = NIH3T3 cell viability loss – ATP luminescence, mouse fibroblasts, counter-screen, dose response (AID 2010); type: functional, cell-based;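 also: cells exposed to compound for about 90 hours before reading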
[7] = system: Streptococcus sp. 'group A'; assay: Streptococcus pyogenes SK(-)GAS viability under kanamycin – luminescence, BacTiterGlo, confirmation, counter-screen for streptokinase expression inhibitor project, dose response (AID 1900); type: functional, organism-based
[8] = target: T6, Trace amine-associated receptor 1 (Homo sapiens, UniProt Q96RJ0); assay: Fluorescence-based cell-based high throughput dose response assay to identify agonists of the human trace amine associated receptor 1 (TAAR1).; type: functional
T6 sequence (Q96RJ0 whole entry): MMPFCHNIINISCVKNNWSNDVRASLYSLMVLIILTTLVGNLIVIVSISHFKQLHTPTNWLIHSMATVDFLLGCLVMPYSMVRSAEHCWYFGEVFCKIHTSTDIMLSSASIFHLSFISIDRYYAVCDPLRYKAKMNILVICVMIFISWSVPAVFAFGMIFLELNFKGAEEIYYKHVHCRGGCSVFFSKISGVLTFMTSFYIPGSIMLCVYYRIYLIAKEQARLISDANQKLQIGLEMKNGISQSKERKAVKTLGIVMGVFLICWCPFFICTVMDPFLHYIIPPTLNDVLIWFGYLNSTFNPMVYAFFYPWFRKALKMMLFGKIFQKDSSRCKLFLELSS

cells [9] = type: functional, cell-based
cells [10] = type: functional, cell-based; remark: listed apart in the source
[11] = target: T6, Trace amine-associated receptor 1; assay: Counterscreen for agonists of the human trace amine associated receptor 1 (hTAAR1): Fluorescence-based cell-based high throughput dose response assay to identify hTAAR1 agonist that also desensitize TAAR1 receptor response.; type: functional
[12] = HIV-1 AD8 envelope cell-cell fusion blockers – cherry-pick, dose response (AID 652062); type: functional, cell-based;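 also: luciferase signal from cell-cell fusion driven by HIV-1 clade B AD8 Env; potency is for inhibitors of fusion seen as a drop in luminescence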
[13] = viability loss in CEM21 cells – cell-based, CellTiter-Glo luminescence, cherry-picked, cytotoxicity control for viral fusion inhibitor project, dose response (AID 652042); type: functional;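 also: potency for signal decrease meaning cytotoxicity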
[14] = blockers of HIV-1 ZM109 envelope-driven cell-cell fusion – HeLa effector, CEM target cells, luciferase, cherry-pick, dose response (AID 652058); type: functional, cell-based;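 also: luciferase signal from HIV-1 Env mediated cell-cell fusion of effector and target cells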
[15] = blockers of HIV-1 envelope-mediated cell-cell fusion – cherry-pick, dose response (AID 652057); type: functional, cell-based
[16] = target: T7, Ubiquitin-conjugating enzyme E2 N (Homo sapiens, UniProt P61088); type: functional;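 also: Dose-response confirmation in a TR-FRET assay detecting UBC13-driven polyubiquitin chain formation, inhibition measured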
T7 sequence (P61088 whole entry): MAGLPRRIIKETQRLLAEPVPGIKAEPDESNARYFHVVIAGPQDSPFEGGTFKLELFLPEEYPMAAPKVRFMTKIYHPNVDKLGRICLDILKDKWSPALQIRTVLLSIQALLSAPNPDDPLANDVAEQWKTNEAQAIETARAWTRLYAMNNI

[17] = target: T8, Rac GTPase-activating protein 1 (Homo sapiens, UniProt Q9H0H5); assay: blockers of MgcRacGAP-driven Rac1 GTP hydrolysis – biochemical, ADP Hunter fluorescence, primary and confirmatory, confirmation (AID 624330); type: functional
T8 sequence (Q9H0H5 whole entry): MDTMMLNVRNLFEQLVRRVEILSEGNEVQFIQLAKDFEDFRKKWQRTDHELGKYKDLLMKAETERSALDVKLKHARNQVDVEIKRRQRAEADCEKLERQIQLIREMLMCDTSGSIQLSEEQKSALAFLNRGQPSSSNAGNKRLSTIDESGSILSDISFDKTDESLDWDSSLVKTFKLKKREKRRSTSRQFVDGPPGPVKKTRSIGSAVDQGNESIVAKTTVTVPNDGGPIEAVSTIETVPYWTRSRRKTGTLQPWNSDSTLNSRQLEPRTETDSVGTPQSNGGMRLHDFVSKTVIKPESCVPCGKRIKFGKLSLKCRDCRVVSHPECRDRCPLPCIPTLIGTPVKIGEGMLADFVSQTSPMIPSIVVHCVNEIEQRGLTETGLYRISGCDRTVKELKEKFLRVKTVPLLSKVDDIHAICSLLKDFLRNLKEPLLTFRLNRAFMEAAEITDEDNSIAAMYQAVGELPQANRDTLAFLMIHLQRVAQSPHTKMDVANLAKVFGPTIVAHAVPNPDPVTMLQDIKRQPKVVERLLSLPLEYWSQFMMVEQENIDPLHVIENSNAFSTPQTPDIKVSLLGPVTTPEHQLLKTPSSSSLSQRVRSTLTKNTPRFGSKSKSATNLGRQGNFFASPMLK

[18] = viability loss in HeLa cells – cytotoxicity control for MgcRacGAP inhibitor project, dose response (AID 624300); type: functional

## CCOc1cc2nc(-c3ccc(OC)c(OC)c3)nc(NCCCN3CCOCC3)c2cc1OC
[1]
  AC50: 5.2 µM (active)
[2]
  AC50: 130 µM (active)

## O=C(CSc1cccc2cccnc12)OCC(=O)c1ccccc1
Cytochrome P450 1A2
  AC50: 20 µM (inconclusive)
Cytochrome P450 2C9
  AC50: inconclusive
[2]
  AC50: 92.5 µM (active)

## CN(C)CCNc1cc(-c2ccncc2)nc2ccccc12
[1]
  AC50: 17.2 µM (active)
[3]
  AC50: 4.09 µM (active)

## C=C(C)C(=O)Nc1cccc(C2=NOC3(C2)C[C@H](C(N)=O)N(C(=O)CC)C3)c1 (stereo partly specified)
Coagulation factor XII
  IC50: > 50 µM (inactive)
[4]
  IC50: 4.32 µM (active)

## CCOc1ccc(NC(=O)c2c(NC(=O)CNCCN3CCOCC3)sc3c2CCC3)cc1
Streptokinase A
  EC50: > 150 µM (not active)
[5]
  EC50: 1.74 µM (active)
Streptococcus
  EC50: 59.5 µM (active)
[6]
  EC50: > 30 µM (not active)
[7]
  EC50: 1.95 µM (active)
[2]
  AC50: 75.1 µM (active)

## CCc1ccccc1NC(=O)N1CCc2ccccc2C1
[8]
  EC50: 0.321 µM (active)
Cells [9]
  EC50: > 29.9 µM (inactive)
Cells [10]
  IC50: > 29.9 µM (inactive)
[11]
  IC50: > 29.9 µM (inactive)

## CCCCCCCCN1C(=O)[C@H](CC(=O)NCc2cccs2)C[C@@]2(C(=O)OCC)CCCC=C12
[12]
  AC50: 22.7 µM (active)
[13]
  AC50: 25.1 µM (active)
[14]
  AC50: 17 µM (active)
[15]
  AC50: 16.8 µM (active)

## COc1ccc(NC(=O)Nc2ccc3c(c2)CC(=O)N([C@@H](C)CO)C[C@@H](C)[C@H](CN(C)Cc2ccc(C(F)(F)F)cc2)O3)cc1
[12]
  AC50: 27 µM (active)
[13]
  AC50: 23.2 µM (active)
[14]
  AC50: 2.67 µM (active)
[15]
  AC50: 6.8 µM (active)

## CN1CCN(CCCN2c3ccccc3Sc3ccc(Cl)cc32)CC1 [PROCHLORPERAZINE EDISYLATE]
[3]
  AC50: 17.6 µM (active)
[16]
  IC50: > 20 µM (inactive)
[17]
  IC50: 80 µM (active)
[18]
  CC50: 65 µM (active)
